Reference: ChEMBL document CHEMBL5729568, “Ras inhibitors” (2023)

How the values were obtained:
GTPase KRas = GTPase KRas (Homo sapiens, UniProt P01116); experiment: The purpose of this biochemical assay is to measure the ability of test compounds to covalently label nucleotide-loaded K-Ras isoforms. […] Analysis of raw data may be carried out using Waters MassLynx MS software, with % bound calculated from the deconvoluted protein peaks for labeled and unlabeled K-Ras.
[1] = (§1) Biochemical Assay: A variety of Ras proteins may be inhibited by compounds of the present invention (e.g., K-Ras, N-Ras, H-Ras, and mutants thereof at positions 12, 13 and 61, such as G12C, G12D, G12V, G12S, G13C, G13D, and Q61L, and others described herein). The purpose of this biochemical assay is to measure the ability of test compounds to covalently label nucleotide-loaded K-Ras isoforms. […] The sample is incubated at 25? C. for a time period of up to 24 hours prior to quenching by the addition of 10 uL of 5% Formic Acid. Quenched samples are centrifuged at 15000 rpm for 15 minutes in a benchtop centrifuge before injecting a 10 uL aliquot onto a reverse phase C4 column and eluting into the mass spectrometer with an increasing acetonitrile gradient in the mobile phase. Analysis of raw data may be carried out using Waters MassLynx MS software, with % bound calculated from the deconvoluted protein peaks for labeled and unlabeled K-Ras.
[2] = as §1; remark: listed apart in the source
[3] = as §1; remark: listed apart in the source
[4] = as §1; remark: listed apart in the source
[5] = as §1; remark: listed apart in the source
[6] = as §1; remark: listed apart in the source
[7] = as §1; remark: listed apart in the source

| SMILES | IC50 (GTPase KRas) | IC50 [1] | IC50 [2] | IC50 [3] | IC50 [4] | IC50 [5] | IC50 [6] | IC50 [7] |
| --- | --- | --- | --- | --- | --- | --- | --- | --- |
| C=CC(=O)N1CC[C@H](C(=O)N(C)[C@H](C(=O)N[C@H]2Cc3cc(O)cc(c3)-c3ccc4c(c3)c(c(-c3ccc(CN(C)C)cc3COC)n4CC)CC(C)(C)COC(=O)[C@@H]3CCCN(N3)C2=O)C(C)C)C1 | in the range around 0.055 µM | – | – | – | – | – | – | – |
| C=CC(=O)N1CC[C@H](C(=O)N(C)[C@H](C(=O)N[C@H]2Cc3cc(O)cc(c3)-c3ccc4c(c3)c(c(-c3cccnc3COC)n4CC#N)CC(C)(C)COC(=O)[C@@H]3CCCN(N3)C2=O)C(C)C)C1 | in the range around 0.055 µM | – | – | – | – | – | – | – |
| C=CC(=O)N1CC[C@H](C(=O)N(C)[C@H](C(=O)N[C@H]2Cc3cc(O)cc(c3)-c3ccc4c(c3)c(c(-c3ccccc3CN(C)C)n4CC)CC(C)(C)COC(=O)[C@@H]3CCCN(N3)C2=O)C(C)C)C1 | in the range around 0.055 µM | – | – | – | – | – | – | – |
| C=CC(=O)N1CC[C@H](C(=O)N(C)[C@H](C(=O)N[C@H]2Cc3cc(O)cc(c3)-c3ccc4c(c3)c(c(-c3ccc5c(c3)CCN(C)C5)n4CC)CC(C)(C)COC(=O)[C@@H]3CCCN(N3)C2=O)C(C)C)C1 | in the range around 0.55 µM | in the range around 5.5 µM | – | – | – | – | – | – |
| C=CC(=O)N1CC[C@H](C(=O)N(C)[C@H](C(=O)N[C@H]2Cc3cc(O)cc(c3)-c3ccc4c(c3)c(c(C3=C(COC)COCC3)n4CC)CC(C)(C)COC(=O)[C@@H]3CCCN(N3)C2=O)C(C)C)C1 | in the range around 0.055 µM | – | – | – | – | – | – | – |
| C=CC(=O)N1CC[C@H](C(=O)N(C)[C@H](C(=O)N[C@H]2Cc3cc(OC(=O)N(C)CC(=O)O)cc(c3)-c3ccc4c(c3)c(c(-c3ccccc3CCOC)n4CC)CC(C)(C)COC(=O)[C@@H]3CCCN(N3)C2=O)C(C)C)C1 | in the range around 0.55 µM | – | – | – | – | – | – | – |
| C=CC(=O)N1CC[C@H](C(=O)N(C)[C@H](C(=O)N[C@H]2Cc3cc(O)cc(c3)-c3ccc4c(c3)c(c(-c3cccnc3CN(C)C)n4CC)CC(C)(C)COC(=O)[C@@H]3CCCN(N3)C2=O)C(C)C)C1 | in the range around 0.55 µM | in the range around 5.5 µM | – | – | – | – | – | – |
| CCn1c(-c2cccnc2C(C)OC)c2c3cc(ccc31)N1CCC[C@@H](C[C@H](NC(=O)[C@@H](COC3CN(C(=O)C#CC(C)(C)N(C)C)C3)C(C)C)C(=O)N3CCC[C@H](N3)C(=O)OCC(C)(C)C2)C1 (stereo partly specified) | – | > 10 µM | > 10 µM | > 10 µM | in the range around 0.055 µM | > 10 µM | > 10 µM | > 10 µM |
| COC(C)c1ncccc1-c1c2c3cc(ccc3n1CC(F)(F)F)-c1cc(cc(C(F)F)c1)C[C@H](NC(=O)[C@@H](COC1CN(C(=O)C#CC(C)(C)N(C)C)C1)C(C)C)C(=O)N1CCC[C@H](N1)C(=O)OCC(C)(C)C2 (stereo partly specified) | – | > 10 µM | > 10 µM | > 10 µM | in the range around 0.55 µM | > 10 µM | > 10 µM | > 10 µM |
| C=CC(=O)N1CC[C@H](C(=O)N(C)[C@H](C(=O)N[C@H]2Cc3cc(O)cc(c3)-c3ccc4c(c3)c(c(-c3cncc(CCN(C)C)c3)n4CC)CC(C)(C)COC(=O)[C@@H]3CCCN(N3)C2=O)C(C)C)C1 | in the range around 0.55 µM | in the range around 5.5 µM | – | – | – | – | – | – |
| C=CC(=O)N1CCOC2(CCN(C(=O)N(C)[C@H](C(=O)N[C@H]3Cc4cc(CF)cc(c4)-c4ccc5c(c4)c(c(-c4cccnc4C(C)OC)n5CC(F)(F)F)CC(C)(C)COC(=O)[C@@H]4CCCN(N4)C3=O)C(C)C)CC2)C1 (stereo partly specified) | – | in the range around 0.55 µM | in the range around 0.55 µM | in the range around 0.055 µM | in the range around 0.55 µM | in the range around 0.55 µM | in the range around 0.55 µM | in the range around 0.055 µM |
| COC(C)c1ncccc1-c1c2c3cc(ccc3n1CC(F)(F)F)-c1cc(F)cc(c1)C[C@H](NC(=O)[C@@H](COC1CN(C(=O)C#CC(C)(C)N(C)C)C1)C(C)C)C(=O)N1CCC[C@H](N1)C(=O)OCC(C)(C)C2 (stereo partly specified) | – | in the range around 5.5 µM | > 10 µM | in the range around 5.5 µM | < 0.01 µM | > 10 µM | in the range around 5.5 µM | in the range around 5.5 µM |
| C=CC(=O)N1CCC(F)(C(=O)N(C)[C@H](C(=O)N[C@H]2C[C@H]3CN(CCO3)c3ccc4c(c3)c(c(-c3cccnc3C(C)OC)n4CC)CC(C)(C)COC(=O)[C@@H]3CCCN(N3)C2=O)C(C)C)CC1 (stereo partly specified) | – | in the range around 5.5 µM | in the range around 5.5 µM | in the range around 5.5 µM | in the range around 0.055 µM | in the range around 5.5 µM | in the range around 5.5 µM | in the range around 0.55 µM |
